Test results published in US20240252456A1, “ORAL COMPOSITION, SKIN COSMETIC AND HAIR COSMETIC” (MARUZEN PHARMACEUTICALS CO., LTD., priority 2021, published 2024).

What was measured:
[1] = tested on: Normal human neonatal epidermal keratinocytes (NHEK); assay: ATP production promotive action test (epidermal keratinocytes); assay type: cell-based; details: 2 hours
Description: Normal human neonatal epidermal keratinocytes (NHEK) were cultured using normal human epidermal keratinocyte growth medium (KGM), and then the cells were collected by a trypsin treatment. The collected cells were diluted with KGM to a cell density of 2.0×10^5 cells/mL, then seeded with 100 μL per well on a collagen-coated 96-well plate, and cultured overnight. After the culturing was completed, the medium was removed, and 100 μL of KGM to which each of test samples (Samples 1 and 2, see Table 13 below for final concentrations) was added was added to each well, and culturing was performed for 2 hours. As a control, culturing was performed in the same manner using KGM to which no sample was added.
The ATP production promotive action was determined by measuring the amount of ATP in cells using the firefly luciferase luminescence method. […] After the reaction, the amount of chemiluminescence proportional to the amount of intracellular ATP was measured using a chemiluminescence measurement device (available from Thermo Fisher Scientific, product name: Varioskan LUX multimode microplate reader). From the obtained results, the ATP production promotion rate (%) was calculated using the following equation. […]

[2] = tested on: Normal human dermal fibroblasts (NB1RGB); assay: Hyaluronic acid production promotive action test; assay type: cell-based; details: 3 days, A/B×100 vs no sample
Description: (§1) Normal human dermal fibroblasts (NB1RGB) were cultured using Dulbecco's modified Eagle's medium (DMEM) containing 10% FBS, and then the cells were collected by a trypsin treatment. The collected cells were diluted with DMEM containing 0.25% FBS to a cell density of 1.6×10^5 cells/mL, then seeded with 100 μL per well in a 96-well plate, and cultured overnight.
After the culturing was completed, 100 μL of each of test samples (Samples 1 and 2, see Table 9 below for final concentrations) dissolved in DMEM containing 0.25% FBS was added to each well, and culturing was performed for 3 days. As a control, culturing was performed in the same manner using DMEM containing 0.25% FBS to which no sample was added. After the culturing was completed, the amount of hyaluronic acid in the medium of each well was measured by a sandwich method using hyaluronic acid binding protein (HABP). From the obtained results, the hyaluronic acid production promotion rate (%) was calculated using the following equation.
Hyaluronic acid production promotion rate (%)=A/B×100
Terms in the equation represent the following respective ones. • A: Hyaluronic acid amount with test sample addition • B: Hyaluronic acid amount without sample addition

[3] = tested on: AGEs; assay: Advanced glycation end product (AGEs) formation suppressive action test; details: type I collagen-coated plate, 0.2M D(−)-ribose, 37° C., 20 days
Description: In a 96-well type I collagen-coated plate (available from AGC Inc.), 100 μL of a mixed solution of 0.2M D(−)-ribose prepared with PBS(−) buffer solution and each of test samples (Samples 1 and 2, see Table 22 below for final concentrations) were added and statically placed at 37° C. for 20 days to form AGEs. In addition, PBS(−) buffer solution only as a negative control and a 0.2M D(−)-ribose solution prepared with PBS(−) buffer solution as a positive control were statically placed in the same manner. After 20 days, the amount of AGEs was measured by the ELISA method using an anti-AGEs antibody (available from TPANS GENIC INC.), and the AGEs formation suppressive action was evaluated. From the obtained results, the AGEs formation suppression rate (%) was calculated using the following equation.
Terms in the equation represent the following respective ones. • A: Absorbance at wavelength 405 nm in negative control • B: Absorbance at wavelength 405 nm in positive control • C: Absorbance at wavelength 405 nm with test sample addition

[4] = tested on: Normal human dermal fibroblasts (NB1RGB); assay: Elastin production promotive action test; assay type: cell-based; details: 5 days
Description: as §1, with “the above medium” for “DMEM containing 0.25% FBS”, “2.2×10^5” for “1.6×10^5”, “microplate,” for “plate,”
After the culturing was completed, the medium was removed, and 150 μL of each of test samples (Samples 2 and 3, see Table 7 below for final concentrations) dissolved in DMEM containing 0.25% FBS was added to each well, and culturing was performed for 5 days. As a control, culturing was performed in the same manner using DMEM containing 0.25% FBS to which no sample was added. After the culturing was completed, the supernatant was recovered, and the amount of elastin released in the culture supernatant was measured by ELISA method. From the measurement results, the elastin production promotion rate (%) was calculated using the following equation.
Terms in the equation represent the following respective ones. • A: Elastin amount with test sample addition • B: Elastin amount without sample addition

Compound: O=C(O)CCc1ccc(O)c(O)c1 [Sample 1, 3,4-Dihydroxyhydrocinnamic acid]
- ATP production promotion rate ([1]; 6.25 μmol/L): 106.7%
- Hyaluronic acid production promotion rate ([2]; 25 μmol/L): 124.2%
- AGEs formation suppression rate ([3]; 125 μmol/L): 45.7%
- AGEs formation suppression rate ([3]; 500 μmol/L): 69.4%
- AGEs formation suppression rate ([3]; 2000 μmol/L): 78.4%

Compound: O=C(O)CCc1ccc(O)cc1 [Sample 2, 3-(4-Hydroxyphenyl)propionic acid]
- Elastin production promotion rate ([4]; 15.6 μmol/L): 145.4%
- Elastin production promotion rate ([4]; 62.5 μmol/L): 147.6%
- Elastin production promotion rate ([4]; 250 μmol/L): 189.3%
- ATP production promotion rate ([1]; 25 μmol/L): 112.4%
- Hyaluronic acid production promotion rate ([2]; 50 μmol/L): 121.8%
- Hyaluronic acid production promotion rate ([2]; 100 μmol/L): 119.3%
- Hyaluronic acid production promotion rate ([2]; 200 μmol/L): 111.7%
- AGEs formation suppression rate ([3]; 2000 μmol/L): 13.3%

Compound: O=C(O)CCc1ccccc1 [Sample 3, 3-phenylpropionic acid]
- Elastin production promotion rate ([4]; 62.5 μmol/L): 174.0%
- Elastin production promotion rate ([4]; 250 μmol/L): 239.0%
